# According to US6355799B1, “Substituted benzene compounds, process for their preparation, and herbicidal and defoliant compositions containing them” (ISK Americas Incorporated, priority 1997, dated 2002):
# How the values were obtained:
# Format in all cases: in vivo
# [1] = test system: green foxtail (Setaria viridis, SETVI); assay: Post-emerge test, greenhouse herbicide activity screening; settings: post-emerge, 14 days after application, rating scale 0-100
# Description: (§1) A standard greenhouse herbicide activity screening system was used to evaluate the herbicidal efficacy and crop safety of these test compounds. Seven broadleaf weed species including redroot pigweed (Amaranthus retroflexus, AMARE, velvetleaf (Abutilon theophrasti, ABUTH), sicklepod (Cassia obtusifolia, CASOB), ivyleaf morningglory (Ipomoea hederacea, IPOHE), lambsquarters (Chenopodium album, CHEAL), common ragweed (Ambrosia artemisizfolia L., AMBEL), and cocklebur (Xanthium strumarium, XANST) were used as test species. Four grass weed species including green foxtail (Setaria viridis, SETVI), barnyardgrass (Echinochloa crus-galli, ECHCG), johnsongrass (Sorghum halepense, SORHA), and large crabgrass (Digitaria sanguinalis, DIGSA) were also used. In addition, three crop species, field corn (Zea mays L., var. Dekalb 535, CORN), soybean (Glycine max L., var. Pella 86, SOY), and is upland rice (Oryza sp., var. Tebonnet, RICE) were included.
# (§2) All plants were grown in 10 cm square plastic pots which were filled with a sandy loam soil mix. For pre-emerge tests, seeds were planted one day prior to application of the test compounds. For post-emerge tests, seeds were planted 8-21 days prior to the test to allow emergence and good foliage development prior to application of the test substances. At the time of the post-emerge application, plants of all species were usually at the 2-3 leaf stage of development.
# (§3) All test compounds Were dissolved in acetone and applied to the test units in a volume of 187 l /ha. Test materials were applied at rates ranging from 15 g ai/ha to 1000 g ai/ha using a track sprayer equipped with a TJ8001E even flow flat fan spray nozzle. Plants were arranged on a shelf so that the top of the canopy (post-emerge) or top of the soil surface (pre-emerge) was 40-45 cm below the nozzle. Pressurized air was used to force the test solution through the nozzle as it was mechanically advanced (via electrically driven chain drive) over the top of all test plants/pots. This application simulates a typical commercial field herbicide application.
# (§4) In the post-emerge test, a commercial non-ionic surfactant was also included (0.25% v/v) to enhance wetting of the leaf surfaces of target plants. Immediately after application, test units of the pre-emerge applications were watered at the soil surface to incorporate the test materials. Subsequently, these test units were bottom-watered. Post-emerge test units were always bottom-watered.
# (§5) At 14 days after application of the test materials, phytotoxicity ratings were recorded. A rating scale of 0-100 was used as previously described in Research Methods in Weed Science, 2nd edition, B. Truelove, Ed., Southern Weed Science Society, Auburn University, Auburn, Ala. 1977. Briefly, “0” corresponds to no damage and “100” corresponds to complete death of all plants in the test unit. This scale was used both to determine efficacy against weed species and damage to crop species. Herbicide activity data for various compounds of this invention, which are shown by compound No. in Tables 1-8, are shown in Tables 11 and 12.
# [2] = test system: sicklepod (Cassia obtusifolia, CASOB); assay: as above; settings: post-emerge, 14 days after application, rating scale 0-100
# Description: as §1, §2, §3, §4, §5
# [3] = test system: ivyleaf morningglory (Ipomoea hederacea, IPOHE); assay: as above; settings: post-emerge, 14 days after application, rating scale 0-100
# Description: as §1, §2, §3, §4, §5
# [4] = test system: velvetleaf (Abutilon theophrasti, ABUTH); assay: as above; settings: post-emerge, 14 days after application, rating scale 0-100
# Description: as §1, §2, §3, §4, §5
# [5] = test system: redroot pigweed (Amaranthus retroflexus, AMARE); assay: as above; settings: post-emerge, 14 days after application, rating scale 0-100
# Description: as §1, §2, §3, §4, §5
# [6] = test system: barnyardgrass (Echinochloa crus-galli, ECHCG); assay: as above; settings: post-emerge, 14 days after application, rating scale 0-100
# Description: as §1, §2, §3, §4, §5
# [7] = test system: lambsquarters (Chenopodium album, CHEAL); assay: as above; settings: post-emerge, 14 days after application, rating scale 0-100
# Description: as §1, §2, §3, §4, §5
# [8] = test system: large crabgrass (Digitaria sanguinalis, DIGSA); assay: as above; settings: post-emerge, 14 days after application, rating scale 0-100
# Description: as §1, §2, §3, §4, §5
# [9] = test system: green foxtail (Setaria viridis, SETVI); assay: Pre-emerge test, greenhouse herbicide activity screening; settings: pre-emerge, 14 days after application, scale 0-100
# Description: as §1, §2, §3, §4, §5
# [10] = test system: sicklepod (Cassia obtusifolia, CASOB); assay: as above; settings: pre-emerge, 14 days after application, scale 0-100
# Description: as §1, §2, §3, §4, §5
# [11] = test system: ivyleaf morningglory (Ipomoea hederacea, IPOHE); assay: as above; settings: pre-emerge, 14 days after application, scale 0-100
# Description: as §1, §2, §3, §4, §5
# [12] = test system: velvetleaf (Abutilon theophrasti, ABUTH); assay: as above; settings: pre-emerge, 14 days after application, scale 0-100
# Description: as §1, §2, §3, §4, §5
# [13] = test system: barnyardgrass (Echinochloa crus-galli, ECHCG); assay: as above; settings: pre-emerge, 14 days after application, scale 0-100
# Description: as §1, §2, §3, §4, §5
# [14] = test system: lambsquarters (Chenopodium album, CHEAL); assay: as above; settings: pre-emerge, 14 days after application, scale 0-100
# Description: as §1, §2, §3, §4, §5
# [15] = test system: large crabgrass (Digitaria sanguinalis, DIGSA); assay: as above; settings: pre-emerge, 14 days after application, scale 0-100
# Description: as §1, §2, §3, §4, §5
# [16] = test system: upland rice (Oryza sp., var. Tebonnet, RICE); assay: Pre-emerge test, crop safety; settings: pre-emerge, 14 days after application, scale 0-100
# Description: as §1, §2, §3, §4, §5
# [17] = test system: field corn (Zea mays L., var. Dekalb 535, CORN); assay: Pre-emerge test, crop safety; settings: pre-emerge, 14 days after application, scale 0-100
# Description: as §1, §2, §3, §4, §5
# [18] = test system: upland rice (Oryza sp., var. Tebonnet, RICE); assay: Post-emerge test, crop safety; settings: post-emerge, 14 days after application, rating scale 0-100
# Description: as §1, §2, §3, §4, §5
# [19] = test system: field corn (Zea mays L., var. Dekalb 535, CORN); assay: Post-emerge test, crop safety; settings: post-emerge, 14 days after application, rating scale 0-100
# Description: as §1, §2, §3, §4, §5
# [20] = test system: redroot pigweed (Amaranthus retroflexus, AMARE); assay: Pre-emerge test, greenhouse herbicide activity screening; settings: pre-emerge, 14 days after application, scale 0-100
# Description: as §1, §2
# as §3, with “Test materials were applied at rates ranging from 15 g ai/ha to 1000 g ai/ha using a track sprayer equipped with a TJ8001E even flow flat fan spray nozzle.” left out
# as §4, §5
smiles,measurement,setting,value
COc1c(Cl)cc(F)c(-n2c(=O)cc(C(F)(F)F)n(C)c2=O)c1NC(=O)C(C#N)=Cc1ccccc1 [2-136],SETVI phytotoxicity rating,[1]; 63 g ai/ha,20
same,SETVI phytotoxicity rating,[1]; 250 g ai/ha,30
same,CASOB phytotoxicity rating,[2]; 63 g ai/ha,60
same,CASOB phytotoxicity rating,[2]; 250 g ai/ha,100
same,IPOHE phytotoxicity rating,[3]; 63 g ai/ha,80
same,IPOHE phytotoxicity rating,[3]; 250 g ai/ha,100
same,ABUTH phytotoxicity rating,[4]; 63 g ai/ha,100
same,ABUTH phytotoxicity rating,[4]; 250 g ai/ha,100
same,AMARE phytotoxicity rating,[5]; 63 g ai/ha,100
same,AMARE phytotoxicity rating,[5]; 250 g ai/ha,100
same,ECHCG phytotoxicity rating,[6]; 63 g ai/ha,0
same,ECHCG phytotoxicity rating,[6]; 250 g ai/ha,10
same,CHEAL phytotoxicity rating,[7]; 63 g ai/ha,95
same,CHEAL phytotoxicity rating,[7]; 250 g ai/ha,100
same,DIGSA phytotoxicity rating,[8]; 63 g ai/ha,0
same,DIGSA phytotoxicity rating,[8]; 250 g ai/ha,20
same,phytotoxicity rating SETVI,[9]; 63 g ai/ha,10
same,phytotoxicity rating SETVI,[9]; 250 g ai/ha,40
same,phytotoxicity rating CASOB,[10]; 63 g ai/ha,0
same,phytotoxicity rating CASOB,[10]; 250 g ai/ha,40
same,phytotoxicity rating IPOHE,[11]; 63 g ai/ha,0
same,phytotoxicity rating IPOHE,[11]; 250 g ai/ha,100
same,phytotoxicity rating ABUTH,[12]; 63 g ai/ha,80
same,phytotoxicity rating ABUTH,[12]; 250 g ai/ha,100
same,phytotoxicity rating ECHCG,[13]; 63 g ai/ha,0
same,phytotoxicity rating ECHCG,[13]; 250 g ai/ha,0
same,phytotoxicity rating CHEAL,[14]; 63 g ai/ha,90
same,phytotoxicity rating CHEAL,[14]; 250 g ai/ha,100
same,phytotoxicity rating DIGSA,[15]; 63 g ai/ha,0
same,phytotoxicity rating DIGSA,[15]; 250 g ai/ha,10
same,phytotoxicity rating RICE (crop damage),[16]; 63 g ai/ha,0
same,phytotoxicity rating RICE (crop damage),[16]; 250 g ai/ha,10
same,phytotoxicity rating CORN (crop damage),[17]; 63 g ai/ha,0
same,phytotoxicity rating CORN (crop damage),[17]; 250 g ai/ha,0
same,RICE phytotoxicity rating (crop damage),[18]; 63 g ai/ha,5
same,RICE phytotoxicity rating (crop damage),[18]; 250 g ai/ha,10
same,CORN phytotoxicity rating (crop damage),[19]; 63 g ai/ha,15
same,CORN phytotoxicity rating (crop damage),[19]; 250 g ai/ha,10
same,phytotoxicity rating AMARE,[20]; 63 g ai/ha,40
same,phytotoxicity rating AMARE,[20]; 250 g ai/ha,90
